Results as given in the supplement of paper PMC10307832.

Columns and labels:
Assay in all cases: relative viability (nuclei count vs DMSO), 5 days (fraction); higher = more cells survive
COR-L23 = test system: COR-L23
Outline: (§1)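 A single step with final 0.05% Triton X-100, 1% formaldehyde and 1 ug/ml Hoechst fixed the cells and stained nuclei 5 days after treatment. Lung cancer cell lines in 1536-well plates had been treated by pin tool the day after seeding with one drug alone or a fixed anchor-drug dose plus five library-drug doses (not always all listed) in √10 steps, and nuclei were counted on 4× images. Relative viability is the ratio of nuclei in treated wells to nuclei in vehicle wells, taken as the median of duplicate plates.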

ChaGo-K-1 = test system: ChaGo-K-1
Outline: as §1

EMC-BAC-2 = test system: EMC-BAC-2
Outline: as §1

HARA = test system: HARA
Outline: as §1

HCC-15 = test system: HCC-15
Outline: as §1

HCC-366 = test system: HCC-366
Outline: as §1

HCC-78 = test system: HCC-78
Outline: as §1

HOP-62 = test system: HOP-62
Outline: as §1

LC-2-ad = test system: LC-2-ad
Outline: as §1

NCI-H1395 = test system: NCI-H1395
Outline: as §1

NCI-H1793 = test system: NCI-H1793
Outline: as §1

NCI-H1944 = test system: NCI-H1944
Outline: as §1

NCI-H1993 = test system: NCI-H1993
Outline: as §1

NCI-H2023 = test system: NCI-H2023
Outline: as §1

NCI-H2126 = test system: NCI-H2126
Outline: as §1

NCI-H2228 = test system: NCI-H2228
Outline: as §1

NCI-H23 = test system: NCI-H23
Outline: as §1

NCI-H2405 = test system: NCI-H2405
Outline: as §1

NCI-H358 = test system: NCI-H358
Outline: as §1

NCI-H838 = test system: NCI-H838
Outline: as §1

SK-LU-1 = test system: SK-LU-1
Outline: as §1

CCN(CC)CCCCNc1ncc2cc(-c3cc(OC)cc(OC)c3)c(NC(=O)NC(C)(C)C)nc2n1 + Nc1nc2[nH]cc(CCc3ccc(C(=O)N[C@@H](CCC(=O)O)C(=O)O)cc3)c2c(=O)[nH]1 [Pemetrexed] (partner 0.2 µM)
relative viability (COR-L23; first compound 0.01 µM): 0.208
relative viability (COR-L23; first compound 0.03162 µM): 0.188
relative viability (COR-L23; first compound 0.1 µM): 0.192
relative viability (COR-L23; first compound 0.3162 µM): 0.196
relative viability (COR-L23; first compound 1 µM): 0.192
relative viability (ChaGo-K-1; first compound 0.01 µM): 0.269
relative viability (ChaGo-K-1; first compound 0.03162 µM): 0.407
relative viability (ChaGo-K-1; first compound 0.1 µM): 0.267
relative viability (ChaGo-K-1; first compound 0.3162 µM): 0.272
relative viability (ChaGo-K-1; first compound 1 µM): 0.265
relative viability (EMC-BAC-2; first compound 0.03162 µM): 0.46
relative viability (EMC-BAC-2; first compound 0.1 µM): 0.491
relative viability (EMC-BAC-2; first compound 0.3162 µM): 0.479
relative viability (EMC-BAC-2; first compound 1 µM): 0.489
relative viability (HARA; first compound 0.01 µM): 0.202
relative viability (HARA; first compound 0.03162 µM): 0.234
relative viability (HARA; first compound 0.1 µM): 0.279
relative viability (HARA; first compound 0.3162 µM): 0.22
relative viability (HARA; first compound 1 µM): 0.281
relative viability (HCC-15; first compound 0.01 µM): 0.21
relative viability (HCC-15; first compound 0.03162 µM): 0.237
relative viability (HCC-15; first compound 0.1 µM): 0.206
relative viability (HCC-15; first compound 0.3162 µM): 0.209
relative viability (HCC-15; first compound 1 µM): 0.207
relative viability (HCC-366; first compound 0.01 µM): 0.164
relative viability (HCC-366; first compound 0.03162 µM): 0.172
relative viability (HCC-366; first compound 0.1 µM): 0.19
relative viability (HCC-366; first compound 0.3162 µM): 0.172
relative viability (HCC-366; first compound 1 µM): 0.191
relative viability (HCC-78; first compound 0.01 µM): 0.919
relative viability (HCC-78; first compound 0.03162 µM): 0.933
relative viability (HCC-78; first compound 0.1 µM): 0.949
relative viability (HCC-78; first compound 0.3162 µM): 0.947
relative viability (HCC-78; first compound 1 µM): 0.89
relative viability (HOP-62; first compound 0.01 µM): 0.33
relative viability (HOP-62; first compound 0.03162 µM): 0.275
relative viability (HOP-62; first compound 0.1 µM): 0.362
relative viability (HOP-62; first compound 0.3162 µM): 0.314
relative viability (HOP-62; first compound 1 µM): 0.351
relative viability (LC-2-ad; first compound 0.01 µM): 0.293
relative viability (LC-2-ad; first compound 0.03162 µM): 0.267
relative viability (LC-2-ad; first compound 0.1 µM): 0.272
relative viability (LC-2-ad; first compound 0.3162 µM): 0.264
relative viability (LC-2-ad; first compound 1 µM): 0.271
relative viability (NCI-H1395; first compound 0.01 µM): 0.898
relative viability (NCI-H1395; first compound 0.03162 µM): 0.787
relative viability (NCI-H1395; first compound 0.1 µM): 0.955
relative viability (NCI-H1395; first compound 0.3162 µM): 1.06
relative viability (NCI-H1395; first compound 1 µM): 0.607
relative viability (NCI-H1793; first compound 0.01 µM): 0.88
relative viability (NCI-H1793; first compound 0.03162 µM): 0.815
relative viability (NCI-H1793; first compound 0.1 µM): 0.988
relative viability (NCI-H1793; first compound 0.3162 µM): 0.949
relative viability (NCI-H1793; first compound 1 µM): 0.548
relative viability (NCI-H1944; first compound 0.01 µM): 0.603
relative viability (NCI-H1944; first compound 0.03162 µM): 0.804
relative viability (NCI-H1944; first compound 0.1 µM): 0.705
relative viability (NCI-H1944; first compound 0.3162 µM): 0.631
relative viability (NCI-H1944; first compound 1 µM): 0.605
relative viability (NCI-H1993; first compound 0.01 µM): 0.57
relative viability (NCI-H1993; first compound 0.03162 µM): 0.583
relative viability (NCI-H1993; first compound 0.1 µM): 0.652
relative viability (NCI-H1993; first compound 0.3162 µM): 0.689
relative viability (NCI-H1993; first compound 1 µM): 0.707
relative viability (NCI-H2023; first compound 0.01 µM): 0.264
relative viability (NCI-H2023; first compound 0.03162 µM): 0.225
relative viability (NCI-H2023; first compound 0.1 µM): 0.323
relative viability (NCI-H2023; first compound 0.3162 µM): 0.264
relative viability (NCI-H2023; first compound 1 µM): 0.219
relative viability (NCI-H2126; first compound 0.01 µM): 0.646
relative viability (NCI-H2126; first compound 0.03162 µM): 0.764
relative viability (NCI-H2126; first compound 0.1 µM): 0.644
relative viability (NCI-H2126; first compound 0.3162 µM): 0.661
relative viability (NCI-H2126; first compound 1 µM): 0.749
relative viability (NCI-H2228; first compound 0.01 µM): 0.318
relative viability (NCI-H2228; first compound 0.03162 µM): 0.344
relative viability (NCI-H2228; first compound 0.1 µM): 0.418
relative viability (NCI-H2228; first compound 0.3162 µM): 0.326
relative viability (NCI-H2228; first compound 1 µM): 0.335
relative viability (NCI-H23; first compound 0.01 µM): 0.666
relative viability (NCI-H23; first compound 0.03162 µM): 0.566
relative viability (NCI-H23; first compound 0.1 µM): 0.854
relative viability (NCI-H23; first compound 0.3162 µM): 0.778
relative viability (NCI-H23; first compound 1 µM): 0.646
relative viability (NCI-H2405; first compound 0.01 µM): 0.994
relative viability (NCI-H2405; first compound 0.03162 µM): 1.06
relative viability (NCI-H2405; first compound 0.1 µM): 1.14
relative viability (NCI-H2405; first compound 0.3162 µM): 1.3
relative viability (NCI-H2405; first compound 1 µM): 1.04
relative viability (NCI-H358; first compound 0.01 µM): 0.163
relative viability (NCI-H358; first compound 0.03162 µM): 0.169
relative viability (NCI-H358; first compound 0.1 µM): 0.16
relative viability (NCI-H358; first compound 0.3162 µM): 0.216
relative viability (NCI-H358; first compound 1 µM): 0.167
relative viability (NCI-H838; first compound 0.01 µM): 0.242
relative viability (NCI-H838; first compound 0.03162 µM): 0.245
relative viability (NCI-H838; first compound 0.1 µM): 0.225
relative viability (NCI-H838; first compound 0.3162 µM): 0.234
relative viability (NCI-H838; first compound 1 µM): 0.224
relative viability (SK-LU-1; first compound 0.01 µM): 0.971
relative viability (SK-LU-1; first compound 0.03162 µM): 0.93
relative viability (SK-LU-1; first compound 0.1 µM): 1.1
relative viability (SK-LU-1; first compound 0.3162 µM): 1.18
relative viability (SK-LU-1; first compound 1 µM): 0.854
